In PubChem BioAssay AID2132 (NMMLSC, 2009):
Peptide text beside a SMILES is read from it. * marks the point of attachment. Cbz = O=C(OCc1ccccc1)*

Assay: yeast 26S proteasome protease site inhibitors – biochemical, fluorogenic peptides, secondary, counter-screen for 26S proteasome disassembly project (AID 2132)
Conditions: fluorogenic peptide cleavage rate, peptide cleavage rate with compound, at 100 µM, stronger effect = lower value

| cleavage rate (fluorescence units/min) (with Ac-RLR-amc) | cleavage rate (fluorescence units/min) (with Ac-nLPnLD-amc) | cleavage rate (fluorescence units/min) (with Suc-LLVY-amc) | Structure (SMILES) |
| --- | --- | --- | --- |
| 0.32 | 0.2 | 0.52 | CC(=O)N1C(=O)C(=C2C=C(C)OC(C)=C2)c2ccccc21 |
| 0.41 | 0.11 | 0 | CC(C)C[C@@H](C=O)NC(=O)[C@H](CC(C)C)NC(=O)[C@H](CC(C)C)NC(=O)OCc1ccccc1 (Cbz-Leu-Leu-Leu-aldehyde) |
